Counter-ions that a name gives are not always drawn.
Key:
[1] = test system: spontaneously hypertensive rats (SHR); experiment: Hypotensive activity in SHR (systolic blood pressure, tail plethysmographic technique); type: in vivo, rat; settings: 50 mg/kg orally
Description: Hypotensive activity in SHR:
A test compound (dose: 50 mg/kg) suspended in an aqueous carboxymethylcellulose solution was administered orally to spontaneously hypertensive rats (SHR) fasted overnight. The systolic blood pressure of the rats was measured by the tail plethysmographic technique (The Journal of Laboratory and Clinical Medicine 78(1971), page 957). The hypotensive activity of the test compound was estimated from the decreased level of blood pressure.

[2] = test system: mice; experiment: Oral toxicity in mice; type: in vivo, mouse; settings: 2 g/kg orally
Description: Furthermore, when a test compound was administered orally to spontaneously hypertensive rats, 3(S)-2-[N-ethyl-N-(2-n-butoxycarbonylethyl)carbamoyl]-1,2,3,4-tetrahydroisoquinoline-3-carboxylic acid 1/2 calcium salt at a dose of 50 mg/kg decreased the blood pressure by 24 mm Hg. In addition, the toxicity of the compound (I) is considerably low. For example, when 3(S)-2-[N-ethyl-N-(2-n-butoxycarbonylethyl)carbamoyl]-1,2,3,4-tetrahydroisoquinoline-3-carboxylic acid 1/2 calcium salt was administered orally to mice at a dose of 2 g/kg, no mouse died within 7 days after said administration.

CCCCOC(=O)CCN(CC)C(=O)N1Cc2ccccc2C[C@H]1C(=O)O [3(S)-2-[N-ethyl-N-(2-n-butoxycarbonylethyl)carbamoyl]-1,2,3,4-tetrahydroisoquinoline-3-carboxylic acid 1/2 calcium salt]
Decrease in blood pressure (-Δ mm Hg) ([1]; SHR fasted overnight, systolic): 24 mm Hg
Duration of action ([1]; hypotensive action, SHR): > 6 h
mortality within 7 days after administration [2]: no mouse died

— patent US4294832A, “Tetrahydroisoquinoline compounds and a pharmaceutical composition thereof” (Tanabe Seiyaku Co., Ltd., priority 1979, dated 1981)
